In ChEMBL document CHEMBL5291721, “A preclinical secondary pharmacology resource illuminates target-adverse drug reaction associations of marketed drugs” (Nat Commun, 2023):

Tests used:
Adenosine receptor A1 [1] = target: T1, Adenosine receptor A1 (Homo sapiens, UniProt P30542)
T1 sequence (P30542 whole entry): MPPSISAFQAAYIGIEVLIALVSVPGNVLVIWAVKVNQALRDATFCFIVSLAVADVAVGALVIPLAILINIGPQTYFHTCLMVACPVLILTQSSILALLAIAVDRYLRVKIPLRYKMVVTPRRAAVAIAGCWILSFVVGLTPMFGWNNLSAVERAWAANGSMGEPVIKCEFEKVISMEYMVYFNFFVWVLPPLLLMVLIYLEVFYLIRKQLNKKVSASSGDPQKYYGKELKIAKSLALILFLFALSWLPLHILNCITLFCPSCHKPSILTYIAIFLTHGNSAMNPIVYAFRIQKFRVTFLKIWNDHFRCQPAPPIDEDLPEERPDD

[2] = target: T2, Alpha-1A adrenergic receptor (Homo sapiens, UniProt P35348)
T2 sequence (P35348 whole entry): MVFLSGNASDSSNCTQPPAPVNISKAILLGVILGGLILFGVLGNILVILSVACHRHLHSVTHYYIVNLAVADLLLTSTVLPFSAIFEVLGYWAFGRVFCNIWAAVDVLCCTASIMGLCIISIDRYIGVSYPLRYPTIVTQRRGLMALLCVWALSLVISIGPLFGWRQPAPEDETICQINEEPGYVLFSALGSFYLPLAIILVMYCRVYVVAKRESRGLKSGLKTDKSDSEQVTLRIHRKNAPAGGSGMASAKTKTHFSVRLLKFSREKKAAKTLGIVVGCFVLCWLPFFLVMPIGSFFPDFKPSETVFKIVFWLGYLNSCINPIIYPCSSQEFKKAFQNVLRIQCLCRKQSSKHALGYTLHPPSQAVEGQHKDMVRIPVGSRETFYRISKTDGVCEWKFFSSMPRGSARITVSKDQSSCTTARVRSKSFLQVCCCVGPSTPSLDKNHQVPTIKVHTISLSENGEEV

[3] = target: Beta-2 adrenergic receptor (Homo sapiens, UniProt P07550); assay type: functional, cell-based
[4] = target: T3, 5-hydroxytryptamine receptor 1A (Homo sapiens, UniProt P08908); assay type: functional, cell-based
T3 sequence (P08908 whole entry): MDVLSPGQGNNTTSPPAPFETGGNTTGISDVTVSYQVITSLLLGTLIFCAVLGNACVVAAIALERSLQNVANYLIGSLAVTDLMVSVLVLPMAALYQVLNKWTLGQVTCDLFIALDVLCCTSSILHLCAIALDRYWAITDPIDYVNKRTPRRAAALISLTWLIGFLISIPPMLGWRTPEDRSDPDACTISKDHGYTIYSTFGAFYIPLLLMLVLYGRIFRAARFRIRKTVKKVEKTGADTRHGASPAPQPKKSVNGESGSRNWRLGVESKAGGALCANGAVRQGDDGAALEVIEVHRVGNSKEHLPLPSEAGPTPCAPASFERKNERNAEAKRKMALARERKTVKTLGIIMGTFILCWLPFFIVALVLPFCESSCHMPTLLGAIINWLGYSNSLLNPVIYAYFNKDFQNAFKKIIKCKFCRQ

[5] = target: 5-hydroxytryptamine receptor 2A (Homo sapiens, UniProt P28223); assay type: functional, cell-based
Adenosine receptor A1 [6] = target: T1, Adenosine receptor A1; remark: listed apart in the source
[7] = target: T4, Type-1 angiotensin II receptor (Homo sapiens, UniProt P30556)
T4 sequence (P30556 whole entry): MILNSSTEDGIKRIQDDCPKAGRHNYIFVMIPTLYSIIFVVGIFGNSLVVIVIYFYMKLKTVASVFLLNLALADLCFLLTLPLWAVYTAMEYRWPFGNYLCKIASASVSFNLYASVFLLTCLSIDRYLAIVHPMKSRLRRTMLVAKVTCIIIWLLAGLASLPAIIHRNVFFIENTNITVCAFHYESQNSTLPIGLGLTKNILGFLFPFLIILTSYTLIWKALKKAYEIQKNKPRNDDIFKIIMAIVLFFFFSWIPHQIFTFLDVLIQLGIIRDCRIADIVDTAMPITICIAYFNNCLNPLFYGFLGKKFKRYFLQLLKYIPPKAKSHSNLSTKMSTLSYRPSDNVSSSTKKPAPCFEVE

[8] = target: Voltage-dependent L-type calcium channel subunit alpha-1C (Rattus norvegicus, UniProt P22002); assay type: functional
[9] = target: Neuronal acetylcholine receptor subunit alpha-4 (Homo sapiens, UniProt P43681)
Endothelin-1 receptor = target: T5, Endothelin-1 receptor (Homo sapiens, UniProt P25101)
T5 sequence (P25101 whole entry): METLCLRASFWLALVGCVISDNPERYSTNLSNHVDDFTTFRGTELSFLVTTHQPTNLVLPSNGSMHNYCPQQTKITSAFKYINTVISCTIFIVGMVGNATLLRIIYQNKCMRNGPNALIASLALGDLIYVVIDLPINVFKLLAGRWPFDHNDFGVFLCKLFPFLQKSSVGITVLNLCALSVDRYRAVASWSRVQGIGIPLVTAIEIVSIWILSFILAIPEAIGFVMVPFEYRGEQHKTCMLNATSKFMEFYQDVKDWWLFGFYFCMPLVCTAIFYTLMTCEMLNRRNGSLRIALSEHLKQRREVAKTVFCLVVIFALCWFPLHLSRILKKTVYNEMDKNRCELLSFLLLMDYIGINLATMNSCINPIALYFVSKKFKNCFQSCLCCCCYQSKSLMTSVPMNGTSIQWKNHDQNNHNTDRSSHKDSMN
Further: assay procedure not described here.

Sequence of 5-hydroxytryptamine receptor 2A (P28223 whole entry): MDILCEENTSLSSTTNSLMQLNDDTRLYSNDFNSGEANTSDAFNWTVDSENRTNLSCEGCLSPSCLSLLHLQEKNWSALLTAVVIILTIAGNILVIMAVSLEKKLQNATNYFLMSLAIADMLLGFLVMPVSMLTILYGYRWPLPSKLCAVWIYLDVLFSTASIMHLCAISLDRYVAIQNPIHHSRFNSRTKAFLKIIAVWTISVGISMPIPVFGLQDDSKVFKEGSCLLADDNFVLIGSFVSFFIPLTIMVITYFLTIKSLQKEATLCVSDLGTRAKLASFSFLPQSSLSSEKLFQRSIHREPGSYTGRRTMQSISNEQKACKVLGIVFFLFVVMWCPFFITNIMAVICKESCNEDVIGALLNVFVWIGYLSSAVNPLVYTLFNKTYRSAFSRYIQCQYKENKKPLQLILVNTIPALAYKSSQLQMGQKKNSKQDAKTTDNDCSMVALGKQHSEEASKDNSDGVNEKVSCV
Sequence of Beta-2 adrenergic receptor (P07550 whole entry): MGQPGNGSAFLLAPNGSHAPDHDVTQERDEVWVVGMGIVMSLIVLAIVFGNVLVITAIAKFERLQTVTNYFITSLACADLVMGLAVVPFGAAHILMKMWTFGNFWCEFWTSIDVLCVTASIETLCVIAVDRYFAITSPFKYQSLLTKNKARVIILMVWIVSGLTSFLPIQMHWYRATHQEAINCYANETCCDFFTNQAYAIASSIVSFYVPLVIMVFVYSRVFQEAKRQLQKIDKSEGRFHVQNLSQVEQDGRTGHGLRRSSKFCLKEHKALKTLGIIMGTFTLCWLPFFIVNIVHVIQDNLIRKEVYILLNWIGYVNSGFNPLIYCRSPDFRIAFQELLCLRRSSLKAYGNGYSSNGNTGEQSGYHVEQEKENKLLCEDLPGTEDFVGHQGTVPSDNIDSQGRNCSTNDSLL
Sequence of Neuronal acetylcholine receptor subunit alpha-4 (P43681 whole entry): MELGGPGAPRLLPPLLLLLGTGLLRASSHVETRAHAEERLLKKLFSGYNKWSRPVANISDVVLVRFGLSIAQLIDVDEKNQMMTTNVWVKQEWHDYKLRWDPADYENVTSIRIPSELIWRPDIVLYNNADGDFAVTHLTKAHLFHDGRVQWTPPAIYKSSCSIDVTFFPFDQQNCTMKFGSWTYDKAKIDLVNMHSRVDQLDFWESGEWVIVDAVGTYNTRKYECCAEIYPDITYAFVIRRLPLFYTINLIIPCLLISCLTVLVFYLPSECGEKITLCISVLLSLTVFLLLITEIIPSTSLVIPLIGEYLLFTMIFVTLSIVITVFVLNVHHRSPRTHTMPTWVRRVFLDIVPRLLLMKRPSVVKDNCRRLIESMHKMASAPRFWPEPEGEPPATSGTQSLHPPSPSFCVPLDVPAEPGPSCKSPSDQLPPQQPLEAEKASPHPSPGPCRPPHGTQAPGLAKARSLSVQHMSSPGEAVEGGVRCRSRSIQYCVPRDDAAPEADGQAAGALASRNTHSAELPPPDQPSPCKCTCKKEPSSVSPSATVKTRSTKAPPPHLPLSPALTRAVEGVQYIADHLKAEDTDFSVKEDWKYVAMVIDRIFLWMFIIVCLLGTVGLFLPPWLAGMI
Sequence of Voltage-dependent L-type calcium channel subunit alpha-1C (P22002 whole entry): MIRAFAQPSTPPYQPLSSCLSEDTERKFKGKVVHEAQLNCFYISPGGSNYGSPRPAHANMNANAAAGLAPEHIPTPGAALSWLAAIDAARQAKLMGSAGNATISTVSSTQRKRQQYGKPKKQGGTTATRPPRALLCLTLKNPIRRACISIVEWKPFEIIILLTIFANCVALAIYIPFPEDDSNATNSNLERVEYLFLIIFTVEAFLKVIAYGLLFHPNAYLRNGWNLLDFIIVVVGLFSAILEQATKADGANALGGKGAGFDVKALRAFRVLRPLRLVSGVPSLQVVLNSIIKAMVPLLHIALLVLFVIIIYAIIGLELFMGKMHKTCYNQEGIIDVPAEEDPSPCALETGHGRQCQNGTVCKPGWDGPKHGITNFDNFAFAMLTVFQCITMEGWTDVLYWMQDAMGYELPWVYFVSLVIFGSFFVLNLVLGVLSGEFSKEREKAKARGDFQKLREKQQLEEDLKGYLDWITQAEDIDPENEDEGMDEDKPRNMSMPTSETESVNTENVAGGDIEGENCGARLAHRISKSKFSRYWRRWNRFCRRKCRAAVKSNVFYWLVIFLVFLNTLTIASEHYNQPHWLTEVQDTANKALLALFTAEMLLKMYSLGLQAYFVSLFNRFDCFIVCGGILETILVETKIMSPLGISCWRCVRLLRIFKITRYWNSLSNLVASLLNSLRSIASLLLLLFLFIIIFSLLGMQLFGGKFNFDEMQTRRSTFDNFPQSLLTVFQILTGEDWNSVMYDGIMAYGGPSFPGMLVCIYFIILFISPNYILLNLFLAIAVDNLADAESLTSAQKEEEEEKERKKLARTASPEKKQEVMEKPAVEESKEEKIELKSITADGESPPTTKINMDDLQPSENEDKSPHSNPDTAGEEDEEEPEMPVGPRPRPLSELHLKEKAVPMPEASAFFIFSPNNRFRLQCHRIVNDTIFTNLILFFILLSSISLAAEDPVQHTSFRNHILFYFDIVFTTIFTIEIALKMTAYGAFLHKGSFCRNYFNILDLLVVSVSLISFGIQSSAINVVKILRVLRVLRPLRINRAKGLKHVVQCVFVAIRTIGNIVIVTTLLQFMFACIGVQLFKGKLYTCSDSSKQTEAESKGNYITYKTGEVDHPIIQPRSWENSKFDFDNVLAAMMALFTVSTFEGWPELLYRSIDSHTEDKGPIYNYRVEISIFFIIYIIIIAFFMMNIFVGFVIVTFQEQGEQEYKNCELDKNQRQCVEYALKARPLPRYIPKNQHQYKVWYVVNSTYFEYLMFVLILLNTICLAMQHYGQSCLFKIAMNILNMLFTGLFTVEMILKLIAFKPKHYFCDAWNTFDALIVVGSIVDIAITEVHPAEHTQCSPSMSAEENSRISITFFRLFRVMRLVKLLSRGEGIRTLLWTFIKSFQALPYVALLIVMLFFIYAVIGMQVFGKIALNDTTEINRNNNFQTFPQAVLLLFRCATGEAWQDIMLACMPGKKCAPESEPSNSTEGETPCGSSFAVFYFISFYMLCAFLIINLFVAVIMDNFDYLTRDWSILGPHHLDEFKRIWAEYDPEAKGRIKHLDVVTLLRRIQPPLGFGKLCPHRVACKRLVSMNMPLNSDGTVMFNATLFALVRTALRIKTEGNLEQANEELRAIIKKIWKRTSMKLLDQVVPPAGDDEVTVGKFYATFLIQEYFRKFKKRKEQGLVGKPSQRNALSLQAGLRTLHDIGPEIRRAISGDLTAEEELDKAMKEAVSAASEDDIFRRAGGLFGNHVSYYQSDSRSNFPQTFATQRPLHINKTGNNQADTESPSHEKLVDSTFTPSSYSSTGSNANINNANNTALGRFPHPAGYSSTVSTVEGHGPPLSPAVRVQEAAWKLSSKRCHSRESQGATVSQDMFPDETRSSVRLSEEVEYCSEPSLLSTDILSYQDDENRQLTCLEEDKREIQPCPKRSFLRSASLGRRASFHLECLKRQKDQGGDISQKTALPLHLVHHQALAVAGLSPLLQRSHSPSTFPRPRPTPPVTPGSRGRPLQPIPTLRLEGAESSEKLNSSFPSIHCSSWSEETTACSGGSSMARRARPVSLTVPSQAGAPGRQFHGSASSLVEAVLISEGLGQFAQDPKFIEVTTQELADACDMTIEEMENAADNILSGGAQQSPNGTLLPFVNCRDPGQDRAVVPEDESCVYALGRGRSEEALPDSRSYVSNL

CO/N=C(\C(=O)N[C@@H]1C(=O)N2C(C(=O)OCOC(=O)C(C)(C)C)=C(C)CS[C@H]12)c1csc(N)n1
AC50 (Adenosine receptor A1 [1]): > 30 µM
AC50 [2]: > 30 µM
AC50 [3]: > 30 µM
AC50 [4]: > 30 µM
AC50 [5]: > 30 µM

O=C(Cn1ccnc1[N+](=O)[O-])NCc1ccccc1 [BENZNIDAZOLE]
AC50 (Adenosine receptor A1 [6]): > 30 µM
AC50 (Adenosine receptor A1 [1]): > 30 µM
AC50 [2]: > 30 µM
AC50 [7]: > 30 µM
AC50 [8]: > 30 µM
AC50 [9]: > 30 µM
AC50 (Endothelin-1 receptor): > 30 µM
AC50 [5]: > 30 µM

COCC1=C(C(=O)OC(C)OC(=O)OC(C)C)N2C(=O)[C@@H](NC(=O)/C(=N\OC)c3csc(N)n3)[C@H]2SC1 (some centres not stated) [CEFPODOXIME PROXETIL]
AC50 (Adenosine receptor A1 [1]): > 30 µM
AC50 [2]: > 30 µM
AC50 [3]: > 30 µM
AC50 [4]: > 30 µM
AC50 [5]: > 30 µM

NS(=O)(=O)c1cc2c(cc1Cl)NC(CC1CCCC1)NS2(=O)=O (configuration not stated) [CYCLOPENTHIAZIDE]
AC50 (Adenosine receptor A1 [1]): > 30 µM
AC50 [2]: > 30 µM
AC50 [3]: > 30 µM
AC50 [4]: > 30 µM
AC50 [5]: > 30 µM

Nc1nc(-n2cc(C(=O)O)c(=O)c3cc(F)c(N4CC(O)C4)c(Cl)c32)c(F)cc1F [DELAFLOXACIN]
AC50 (Adenosine receptor A1 [1]): > 30 µM
AC50 [2]: > 30 µM

CC1=NN(c2ccccc2)C(=O)C1 [EDARAVONE]
AC50 (Adenosine receptor A1 [1]): > 30 µM
AC50 [2]: > 30 µM

N/N=c1/cc2c(n[nH]1)CCN(C(=O)c1ccccc1)C2 [ENDRALAZINE]
AC50 (Adenosine receptor A1 [1]): > 30 µM
AC50 [2]: > 30 µM
AC50 [3]: > 30 µM
AC50 [4]: > 30 µM
AC50 [5]: > 30 µM

CC(C)=CCC1C(=O)N(c2ccccc2)N(c2ccccc2)C1=O [FEPRAZONE]
AC50 (Adenosine receptor A1 [1]): > 30 µM
AC50 [2]: > 30 µM

CN1C(=O)N(C)C2C1N(C)C(=O)N2C (configuration not stated) [MEBICAR]
AC50 (Adenosine receptor A1 [1]): > 30 µM
AC50 [2]: > 30 µM
AC50 [3]: > 30 µM
AC50 [4]: > 30 µM
AC50 [5]: > 30 µM

Cn1cc[nH]c1=S [METHIMAZOLE]
AC50 (Adenosine receptor A1 [1]): > 30 µM
AC50 [2]: > 30 µM

NC(=O)c1cccc2cn(-c3ccc([C@@H]4CCCNC4)cc3)nc12 [NIRAPARIB]
AC50 (Adenosine receptor A1 [1]): > 30 µM
AC50 [2]: 29.4 µM

Nc1ccc(/N=N/c2ccccc2)c(N)n1 [PHENAZOPYRIDINE]
AC50 (Adenosine receptor A1 [1]): 13.1 µM
AC50 [2]: 23.4 µM
AC50 [3]: > 30 µM
AC50 [5]: > 30 µM
